Where two headings read alike, the source gives them in different places.
Experiments:
human androgen receptor [1] = biological target: T1, human androgen receptor (Homo sapiens, UniProt P10275); experiment: Measurement of agonist effect on androgen receptor (reporter gene assay, 11A11B2 cells); assay type: cell-based; conditions: compound concentration showing a transcription activity of 5% (0.1 nmol/L DHT = 100%, assay medium alone = 0%), 48 hours
T1 construct: expressed in transfected cells
T1 sequence (P10275 1-920): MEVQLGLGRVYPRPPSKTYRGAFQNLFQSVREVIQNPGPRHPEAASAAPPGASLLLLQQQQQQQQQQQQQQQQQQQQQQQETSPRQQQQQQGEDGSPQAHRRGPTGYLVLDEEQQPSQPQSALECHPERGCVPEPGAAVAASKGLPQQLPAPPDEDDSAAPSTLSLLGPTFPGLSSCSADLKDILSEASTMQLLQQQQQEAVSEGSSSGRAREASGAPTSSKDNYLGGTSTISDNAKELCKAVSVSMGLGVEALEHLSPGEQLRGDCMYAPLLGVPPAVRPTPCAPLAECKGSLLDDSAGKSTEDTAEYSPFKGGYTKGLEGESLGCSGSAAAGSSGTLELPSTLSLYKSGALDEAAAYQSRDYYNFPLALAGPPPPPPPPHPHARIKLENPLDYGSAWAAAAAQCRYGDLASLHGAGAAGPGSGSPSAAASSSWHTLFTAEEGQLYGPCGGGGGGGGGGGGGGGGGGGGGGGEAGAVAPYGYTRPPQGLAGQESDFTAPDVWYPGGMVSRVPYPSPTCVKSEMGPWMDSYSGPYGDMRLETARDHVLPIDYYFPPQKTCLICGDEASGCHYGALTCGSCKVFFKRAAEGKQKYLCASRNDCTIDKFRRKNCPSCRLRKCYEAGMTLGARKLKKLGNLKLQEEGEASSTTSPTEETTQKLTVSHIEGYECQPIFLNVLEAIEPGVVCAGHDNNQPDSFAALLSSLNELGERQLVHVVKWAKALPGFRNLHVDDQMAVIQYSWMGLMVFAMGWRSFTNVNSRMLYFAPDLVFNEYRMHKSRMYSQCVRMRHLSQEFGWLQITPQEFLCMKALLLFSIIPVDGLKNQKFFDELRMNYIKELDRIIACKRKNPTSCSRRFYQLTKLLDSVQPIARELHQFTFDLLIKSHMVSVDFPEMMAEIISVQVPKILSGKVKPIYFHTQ

androgen receptor = androgen receptor (Homo sapiens, UniProt P10275); conditions: at a concentration of 10 μmol/L; cited from earlier work
[2] = prostate cancer patients treated with flutamide; cited from earlier work
castrated rats = conditions: continuously administered to castrated rats for two weeks; cited from earlier work
human androgen receptor [3] = biological target: T1, human androgen receptor; experiment: Investigation of antagonist effect on androgen receptor (reporter gene assay, 11A11B2 cells, with DHT); assay type: cell-based
[4] = with 0.1 nmol/L DHT, transcription activity rate of Test Example 1 subtracted, 11A11B2 cells, 48 hours, read-out: IC50

| Structure (SMILES) | EC5 (human androgen receptor [1]) [µM] | IC50 (human androgen receptor [3]; [4]) [nM] | IC50 (human androgen receptor [3]) [nM] | other results |
| --- | --- | --- | --- | --- |
| CC(C)(O)C(=O)Nc1ccc([N+](=O)[O-])c(C(F)(F)F)c1 [Comparative Example 4, hydroxyflutamide] | 0.01 |  |  | androgen receptor transcription activity (androgen receptor): increase; concentration in the blood [2]: several |
| CC(=O)O[C@]1(C(C)=O)CC[C@H]2[C@@H]3C=C(Cl)C4=CC(=O)CC[C@]4(C)[C@H]3CC[C@@]21C [chlormadinone acetate] |  |  |  | weight of the prostate gland (castrated rats): increase |
| CCOC(=O)Nc1cc(N2C(=O)N(c3ccc(C#N)c(C(F)(F)F)c3)C(=O)C2(C)C)ccc1Cl [Example 13, {2-chloro-5-[3-(4-cyano-3-trifluoromethylphenyl)-5,5-dimethyl-2,4-dioxoimidazolidin-1-yl]phenyl}carbamic acid ethyl ester] | >10 | 200 |  | melting point: 155 to 157 °C |
| CCCOC(=O)Nc1cc(N2C(=O)N(c3ccc(C#N)c(OC)c3)C(=O)C2(C)C)ccc1Cl [Example 26, 4-[3-(3-n-propoxycarbonylamino-4-chlorophenyl)-4,4-dimethyl-2,5-dioxoimidazolidin-1-yl]-2-methoxybenzonitrile] | >10 | 200 |  |  |
| CCS(=O)(=O)N1CCC(N2C(=O)N(c3ccc(C#N)c(C(F)(F)F)c3C)C(=O)C2(C)C)CC1 [Example 10, 4-[3-(1-ethanesulfonylpiperidin-4-yl)-4,4-dimethyl-2,5-dioxoimidazolidin-1-yl]-2-trifluoromethyl-3-methylbenzonitrile] | >10 | 600 |  |  |
| CC1(C)C(=O)N(c2ccc(C#N)c(C(F)(F)F)c2)C(=O)N1c1ccc(Cl)c(NC(=O)OCCN)c1 [Example 37, {2-chloro-5-[3-(4-cyano-3-trifluoromethylphenyl)-5,5-dimethyl-2,4-dioxoimidazolidin-1-yl]phenyl}-carbamic acid 2-aminoethyl ester] | >10 | 700 |  |  |
| CC1(C)C(=O)N(c2ccc(C#N)c(C(F)(F)F)c2)C(=S)N1c1ccc(Cl)c(NC(=O)OCC(O)CO)c1 (stereo not drawn) [Example 49, {2-chloro-5-[3-(4-cyano-3-trifluoromethylphenyl)-5,5-dimethyl-4-oxo-2-thioxoimidazolidin-1-yl]phenyl}-carbamic acid 2,3-dihydroxypropyl ester] | >10 |  | 300 |  |
| CCC(=O)N1CCC(N2C(=O)N(c3ccc(C#N)c(Cl)c3C)C(=O)C2(C)C)CC1 [Example 12, 4-[3-(1-propionylpiperidin-4-yl)-4,4-dimethyl-2,5-dioxoimidazolidin-1-yl]-2-chloro-3-methylbenzonitrile] | >10 | 700 |  |  |
| CC(=O)O[C@]1(C(C)=O)CC[C@H]2[C@@H]3C=C(Cl)C4=CC(=O)[C@@H]5C[C@@H]5[C@]4(C)[C@H]3CC[C@@]21C [cyproterone acetate] |  |  |  | weight of the prostate gland (castrated rats): increase |
| CC1(C)C(=O)N(c2ccc(C#N)c(C(F)(F)F)c2)C(=S)N1c1ccc(Cl)c(NC(=O)OCCO)c1 [Example 46, {2-chloro-5-[3-(4-cyano-3-trifluoromethylphenyl)-5,5-dimethyl-4-oxo-2-thioxoimidazolidin-1-yl]phenyl}-carbamic acid 2-hydroxyethyl ester] | >10 |  | 300 |  |
| COc1cc(N2C(=O)C(C)(C)N(c3ccc(Cl)c(NC(=O)OCCO)c3)C2=S)ccc1C#N [Example 48, {2-chloro-5-[3-(4-cyano-3-methoxyphenyl)-5,5-dimethyl-4-oxo-2-thioxoimidazolidin-1-yl]phenyl}-carbamic acid 2-hydroxyethyl ester] | >10 | 500 |  |  |
| CC1(C)C(=O)N(c2ccc(C#N)c(C(F)(F)F)c2)C(=S)N1c1ccc2sc(NC(N)=O)nc2c1 [Example 18, {5-[3-(4-cyano-3-trifluoromethylphenyl)-5,5-dimethyl-4-oxo-2-thioxoimidazolidin-1-yl]-benzothiazol-2-yl}urea] | >10 |  | 100 |  |
| CC1(C)C(=O)N(c2ccc(C#N)c(C(F)(F)F)c2)C(=S)N1c1ccc(Cl)c(NC(=N)N)c1 [Example 55, N-{2-chloro-5-[3-(4-cyano-3-trifluoromethylphenyl)-5,5-dimethyl-4-oxo-2-thioxoimidazolidin-1-yl]phenyl}guanidine] | >10 |  | 700 |  |
| CC(=O)N1CCC(N2C(=S)N(c3ccc(C#N)c(Cl)c3)C(=O)C2(C)C)CC1 [Example 6, 4-[3-(1-acetylpiperidin-4-yl)-4,4-dimethyl-5-oxo-2-thioxoimidazolidin-1-yl]-2-chlorobenzonitrile] | >10 |  | 200 |  |
| CC1(C)C(=O)N(c2ccc(C#N)c(Cl)c2)C(=S)N1c1cccc(S(N)(=O)=O)c1 [Example 68, 3-[3-(3-chloro-4-cyanophenyl)-5,5-dimethyl-4-oxo-2-thioxoimidazolidin-1-yl]benzenesulfonamide] | >10 | 400 |  |  |

Source: patent US8470829B2 (priority 2004, dated 2013)
